Common to all, as to assay type: functional
Experiment [1] concerns Bacillus subtilis. In words: Antibacterial activity against Bacillus subtilis ATCC 9372 after 24 hr by two-fold serial dilution test. Particulars: ATCC 9372, 24 h.
Another experiment has as its system Proteus vulgaris. As to the kind of experiment: Antibacterial activity against Proteus vulgaris ATCC 14153 after 24 hr by two-fold serial dilution test. To be noted: ATCC 14153, 24 h.
The subject of experiment [2] is Escherichia coli. As to the kind of experiment: Antibacterial activity against Escherichia coli ATCC 25922 after 24 hr by two-fold serial dilution test. Particulars: ATCC 25922, 24 h.
Experiment [3] has as its system Staphylococcus aureus. In words: Antibacterial activity against Staphylococcus aureus ATCC 25923 after 24 hr by two-fold serial dilution test. To be noted: ATCC 25923, 24 h.
Experiment [4] has as its system Staphylococcus aureus. In words: Antibacterial activity against Staphylococcus aureus ATCC 25923 at 400 ug/mL after 24 hr by agar well diffusion assay.
Experiment [5] relates to Escherichia coli. In words: Antibacterial activity against Escherichia coli ATCC 25922 at 400 ug/mL after 24 hr by agar well diffusion assay. For orientation: Agar diffusion results depend on both activity and mobility in agar.
The test system of experiment [6] is Bacillus subtilis. In words: Antibacterial activity against Bacillus subtilis ATCC 9372 at 400 ug/mL after 24 hr by agar well diffusion assay.

Usually MIC stands for the lowest concentration found to suppress growth.

In brackets after ≈: the same amount, converted by molar mass. Activity calls are given as the source filed them. The rule behind the calls is not given here.

With `CCCCOc1cc(O)c2c(c1)O[C@H](c1ccc(OC)c(O)c1)CC2=O` [7-BUTOXYHESPERETIN], the minimum inhibitory concentration (MIC) in the experiment with Bacillus subtilis [1] turned out to be 100 µg/mL (≈ 279 µM); with Proteus vulgaris, 50 µg/mL (≈ 140 µM); in the experiment on Escherichia coli [2] it was 100 µg/mL (≈ 279 µM); with Staphylococcus aureus [3], 25 µg/mL (≈ 69.8 µM).

Take `CCCCCCCCCCCCOc1cc(O)c2c(c1)O[C@H](c1ccc(OC)c(O)c1)CC2=O` [7-DODECYLOXYHESPERETIN]: the MIC with Bacillus subtilis [1] was found to be 50 µg/mL (≈ 106 µM); against Proteus vulgaris, 12.5 µg/mL (≈ 26.6 µM); in the experiment with Escherichia coli [2], 50 µg/mL (≈ 106 µM); in the experiment with Staphylococcus aureus [3], 6.25 µg/mL (≈ 13.3 µM).

Take `COc1cc(O)c2c(c1)O[C@H](c1ccc(OC)c(O)c1)CC2=O` [7-METHOXYHESPERETIN]: the MIC against Bacillus subtilis [1] is 200 µg/mL (≈ 632 µM); with Proteus vulgaris it was 50 µg/mL (≈ 158 µM); in the experiment with Escherichia coli [2], 200 µg/mL (≈ 632 µM); in the experiment on Staphylococcus aureus [3], 100 µg/mL (≈ 316 µM).

Turning to `CCCCCCCCOc1cc(O)c2c(c1)O[C@H](c1ccc(OC)c(O)c1)CC2=O` [7-OCTOXYHESPERETIN], the MIC with Bacillus subtilis [1] stood at 50 µg/mL (≈ 121 µM); in the experiment with Proteus vulgaris, 25 µg/mL (≈ 60.3 µM); in the experiment with Escherichia coli [2] it was 25 µg/mL (≈ 60.3 µM); in the experiment on Staphylococcus aureus [3] it was 12.5 µg/mL (≈ 30.2 µM).

Take `COc1ccc([C@@H]2CC(=O)c3c(O)cc(O)cc3O2)cc1O` [HESPERETIN]: the figures for the MIC against Bacillus subtilis [1] and against Proteus vulgaris were 200 µg/mL (≈ 662 µM) and 100 µg/mL (≈ 331 µM), respectively. Besides, the “diameter of the inhibition zone (DIZ)” value in the experiment with Staphylococcus aureus [4] and in the experiment with Escherichia coli [5] was “inactive” each time.

For `COc1ccc([C@@H]2CC(=O)c3c(O)cc(O[C@@H]4O[C@H](CO[C@@H]5O[C@@H](C)[C@H](O)[C@@H](O)[C@H]5O)[C@@H](O)[C@H](O)[C@H]4O)cc3O2)cc1O` [HESPERIDIN], the “diameter of the inhibition zone (DIZ)” value in the experiment on Staphylococcus aureus [4], in the experiment with Bacillus subtilis [6] and with Escherichia coli [5] was “inactive” throughout. The compound further gave an MIC in the experiment on Proteus vulgaris of 200 µg/mL (≈ 328 µM).

For `CN[C@@H]1[C@H](O[C@H]2[C@H](O[C@H]3[C@H](O)[C@@H](O)[C@H](N=C(N)N)[C@@H](O)[C@@H]3N=C(N)N)O[C@@H](C)[C@]2(O)C=O)O[C@@H](CO)[C@H](O)[C@H]1O.CN[C@@H]1[C@H](O[C@H]2[C@H](O[C@H]3[C@H](O)[C@@H](O)[C@H](N=C(N)N)[C@@H](O)[C@@H]3N=C(N)N)O[C@@H](C)[C@]2(O)C=O)O[C@@H](CO)[C@H](O)[C@H]1O.O=S(=O)(O)O.O=S(=O)(O)O.O=S(=O)(O)O` [STREPTOMYCIN SULFATE], the MIC against Bacillus subtilis [1] is 50 µg/mL; against Proteus vulgaris, 3.13 µg/mL; in the experiment on Escherichia coli [2] it was 1.56 µg/mL; in the experiment with Staphylococcus aureus [3], 25 µg/mL.

The record behind these values is ChEMBL document CHEMBL3046155, “Synthesis and antimicrobial activity of 7-alkoxyhesperetin derivatives” (2011).
